Reference: patent US20070213339A1 (Bayer Pharmaceuticals Corporation, priority 2004, published 2007)

System: Colo205 human colon carcinoma cell line
Assay: In vitro tumor cell proliferation assay (MTS, CellTiter 96 Aqueous One Solution)
Format: cell-based
Conditions: COLO 205, Colo205 cells, 72 hours compound exposure, MTS absorbance at 490 nm, read-out: IC50 (concentration of test compound required to inhibit proliferation of 50% of the cells)
Method in brief: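 Proliferation measured as MTS tetrazolium reduction (490 nm) after 72 h compound exposure at 37 °C. Cells plated at 2000 per well in serum-supplemented RPMI-1640; duplicate 5-point dilutions topping out at 10-20 μM. Percent inhibition versus untreated and cell-free wells, IC50 derived by linear regression.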

For `COc1c(N2CCN(c3ccc(C#N)cc3)CC2)c(F)cc2c(=O)c(C(=O)O)cn(-c3ccc(CN4CCCC4)cc3)c12` [Example 77, 7-[4-(4-cyanophenyl)piperazin-1-yl]-6-fluoro-8-methoxy-4-oxo-1-[4-(pyrrolidin-1-ylmethyl)phenyl]-1,4-dihydroquinoline-3-carboxylic acid], the IC50 was less than 500 nM.
Work on `O=C(O)c1cn(-c2ccc(CNC3CCCC3)cc2)c2c(Cl)c(N3CCN(c4ncccn4)CC3)c(F)cc2c1=O` [Example 57, 8-chloro-1-{4-[(cyclopentylamino)methyl]-phenyl}-6-fluoro-4-oxo-7-(4-pyrimidin-2-ylpiperazin-1-yl)-1,4-dihydroquinoline-3-carboxylic acid] yielded an IC50 of less than 500 nM.
Compound `COC[C@H]1CCCN1Cc1ccc(-n2cc(C(=O)O)c(=O)c3cc(F)c(N4CCN(c5ccccn5)CC4)c(Cl)c32)cc1` [Example 21, 8-chloro-6-fluoro-1-(4-{[(2R)-2-(methoxy-methyl)pyrrolidin-1-yl]methyl}phenyl)-4-oxo-7-(4-pyridin-2-ylpiperazin-1-yl)-1,4-dihydroquinoline-3-carboxylic acid] has an IC50 of less than 500 nM.
`CCN(CC)Cc1ccc(-n2cc(C(=O)O)c(=O)c3cc(F)c(N4CCN(c5ncccn5)CC4)c(OC(F)(F)Cl)c32)cc1` [Example 160] gave an IC50 of 500 to 2000 nM.
For `NC(=O)c1cccnc1N1CCN(c2c(F)cc3c(=O)c(C(=O)O)cn(-c4ccc(CN5CCCC5)cc4)c3c2Cl)CC1` [Example 9, 7-{4-[3-(aminocarbonyl)pyridin-2-yl]piperazin-1-yl}-8-chloro-6-fluoro-4-oxo-1-[4-(pyrrolidin-1-ylmethyl)phenyl]-1,4-dihydroquinoline-3-carboxylic acid], the IC50 was 500 to 2000 nM.
`Cc1cccnc1N1CCN(c2c(F)cc3c(=O)c(C(=O)O)cn(-c4ccc(CN5CCCC5)cc4F)c3c2Cl)CC1` [Example 44, 8-chloro-6-fluoro-1-[2-fluoro-4-(pyrrolidin-1-ylmethyl)phenyl]-7-[4-(3-methylpyridin-2-yl)piperazin-1-yl]-4-oxo-1,4-dihydroquinoline-3-carboxylic acid] showed an IC50 of less than 500 nM.
`COc1c(N2CCN(c3ccccn3)CC2)c(F)cc2c(=O)c(C(=O)O)cn(-c3ccc(CN4CCCCC4)cc3)c12` [Example 194, 6-fluoro-8-methoxy-4-oxo-1-(4-piperidin-1-ylmethyl-phenyl)-7-(4-pyridin-2-yl-piperazine-1-yl]-1,4-dihydroquinoline-3-carboxylic acid] gave an IC50 of less than 500 nM.
`N#Cc1cc(C(F)(F)F)ccc1N1CCN(c2c(F)cc3c(=O)c(C(=O)O)cn(-c4ccc(CN5CCCC5)cc4)c3c2Cl)CC1` [Example 5, 8-chloro-7-{4-[2-cyano-4-(trifluoromethyl)-phenyl]piperazin-1-yl}-6-fluoro-4-oxo-1-[4 (pyrrolidin-1-ylmethyl)phenyl]-1,4-dihydroquinoline-3-carboxylic acid] was tested, and the IC50 was 500 to 2000 nM.
In the case of `N#Cc1ccccc1N1CCN(c2c(F)cc3c(=O)c(C(=O)O)cn(-c4ccc(CN5CCCC5)nc4)c3c2Cl)CC1` [Example 36, 8-chloro-7-[4-(2-cyanophenyl)piperazin-1-yl]-6-fluoro-4-oxo-1-[6-(pyrrolidin-1-ylmethyl)pyridin-3-yl]-1,4-dihydroquinoline-3-carboxylic acid], the IC50 is reported as 500 to 2000 nM.
`O=C(O)c1cn(-c2ccc(CN3CCCC3)cc2)c2c(OC(F)(F)F)c(N3CCN(c4cccc(Cl)c4)CC3)c(F)cc2c1=O` [Example 119, 7-[4-(3-chlorophenyl)piperazin-1-yl]-6-fluoro-4-oxo-1-[4-(pyrrolidin-1-ylmethyl)phenyl]-8-(trifluoromethoxy)-1,4-dihydroquinoline-3-carboxylic acid] showed an IC50 of less than 500 nM.
In the case of `COc1cc(CNC2CCCC2)ccc1-n1cc(C(=O)O)c(=O)c2cc(F)c(N3CCN(c4ccc(F)cc4)CC3)c(Cl)c21` [Example 179, 8-chloro-1-(4-cyclopentylaminomethyl-2-methoxyphenyl)-6-fluoro-7-[4-(4-fluorophenyl)-piperazine-1-yl]-4-oxo-1,4-dihydroquinoline-3-carboxylic acid], the IC50 is reported as 500 to 2000 nM.
For `N#Cc1cccnc1N1CCN(c2c(F)cc3c(=O)c(C(=O)O)cn(-c4ccc(CN5CCCC5)c(F)c4)c3c2Cl)CC1` [Example 184, 8-chloro-7-[4-(3-cyanopyridin-2-yl)-piperazine-1-yl]-6-fluoro-1-(3-fluoro-4-pyrrolidin-1-ylmethyl-phenyl)-4-oxo-1,4-dihydroquinoline-3-carboxylic acid], the IC50 was less than 500 nM.
Compound `CCN(CC)Cc1ccc(-n2cc(C(=O)O)c(=O)c3cc(F)c(N4CCN(c5ccc(Cl)cc5)CC4)c(OC(F)(F)Cl)c32)cc1` [Example 164, 8-[chloro(difluoro)methoxy]-7-[4-(4-chlorophenyl)piperazin-1-yl]-1-{4-[(diethylamino)methyl]phenyl}-6-fluoro-4-oxo-1,4-dihydroquinoline-3-carboxylic acid] has an IC50 of less than 500 nM.
`N#Cc1ccccc1N1CCN(c2c(F)cc3c(=O)c(C(=O)O)cn(-c4ccc(CN5CC[C@H](O)C5)cc4)c3c2Cl)CC1` [Example 30, 8-chloro-7-[4-(2-cyanophenyl)piperazin-1-yl]-6-fluoro-1-(4-{[(3S)-3-hydroxypyrrolidin-1-yl]methyl}phenyl)-4-oxo-1,4-dihydroquinoline-3-carboxylic acid] gave an IC50 of less than 500 nM.
`CON(C)Cc1ccc(-n2cc(C(=O)O)c(=O)c3cc(F)c(N4CCN(c5ccc(F)cc5)CC4)c(Cl)c32)cc1` [Example 51, 8-chloro-6-fluoro-7-[4-(4-fluorophenyl)-piperazin-1-yl]-1-(4-{[methoxy(methyl)amino]methyl}phenyl)-4-oxo-1,4-dihydroquinoline-3-carboxylic acid] was tested, and the IC50 was 2000 to 20000 nM.
Compound `O=C(O)c1cn(-c2cccc(CN3CCCCC3)c2)c2c(Cl)c(N3CCN(c4ccc(F)cc4F)CC3)c(F)cc2c1=O` [Example 64, 8-chloro-7-[4-(2,4-difluorophenyl)piperazin-1-yl]-6-fluoro-4-oxo-1-[3-(piperidin-1-ylmethyl)phenyl]-1,4-dihydroquinoline-3-carboxylic acid] has an IC50 of 2000 to 20000 nM.
`COC[C@@H]1CCCN1Cc1ccc(-n2cc(C(=O)O)c(=O)c3cc(F)c(N4CCN(c5ncccn5)CC4)c(Cl)c32)cc1` [Example 26, 8-chloro-6-fluoro-1-(4-{[(2S)-2-(methoxy-methyl)pyrrolidin-1-yl]methyl}phenyl)-4-oxo-7-(4-pyrimidin-2-ylpiperazin-1-yl)-1,4-dihydroquinoline-3-carboxylic acid] showed an IC50 of less than 500 nM.
`COc1c(N2CCN(c3cccc(Cl)c3)CC2)c(F)cc2c(=O)c(C(=O)O)cn(-c3ccc(CN(C)C)cc3)c12` [Example 98, 7-[4-(3-chlorophenyl)piperazin-1-yl]-1-{4-[(dimethylamino)methyl]phenyl}-6-fluoro-8-methoxy-4-oxo-1,4-dihydroquinoline-3-carboxylic acid] showed an IC50 of less than 500 nM.
With `O=C(O)c1cn(-c2ccc(CN3CCCC3)cc2)c2c(OC(F)(F)F)c(N3CCN(c4ccc(F)cc4)CC3)c(F)cc2c1=O` [Example 121, 6-fluoro-7-[4-(4-fluorophenyl)piperazin-1-yl]-4-oxo-1-[4-(pyrrolidin-1-ylmethyl)phenyl]-8-(trifluoromethoxy)-1,4-dihydroquinoline-3-carboxylic acid] the IC50 was less than 500 nM.
In the case of `COC[C@@H]1CCCN1Cc1ccc(-n2cc(C(=O)O)c(=O)c3cc(F)c(N4CCN(c5ccc(F)cc5)CC4)c(Cl)c32)cc1` [Example 25, 8-chloro-6-fluoro-7-[4-(4-fluorophenyl)-piperazin-1-yl]-1-(4-{[(2S)-2-(methoxymethyl)pyrrolidin-1-yl]methyl}phenyl)-4-oxo-1,4-dihydroquinoline-3-carboxylic acid], the IC50 is reported as less than 500 nM.
Work on `COc1c(N2CCN(c3ccccn3)CC2)c(F)cc2c(=O)c(C(=O)O)cn(-c3ccc(CN4CCCC4)cc3)c12` [Example 72, 6-fluoro-8-methoxy-4-oxo-7-(4-pyridin-2-ylpiperazin-1-yl)-1-[4-(pyrrolidin-1-ylmethyl)phenyl]-1,4-dihydroquinoline-3-carboxylic acid] yielded an IC50 of less than 500 nM.
`O=C(O)c1cn(-c2ccc(CNC3CCCC3)cc2)c2c(OC(F)(F)Cl)c(N3CCN(c4ccccn4)CC3)c(F)cc2c1=O` [Example 180, 8-(chloro-difluoromethoxy)-1-(4-cyclopentylaminomethyl-phenyl)-6-fluoro-4-oxo-7-(4-pyridin-2-yl-piperazin-1-yl)-1,4-dihydroquinoline-3-carboxylic acid] showed an IC50 of less than 500 nM.
`O=C(O)c1cn(-c2cccc(CN3CCCCC3)c2)c2c(Cl)c(N3CCN(c4cccc(Cl)c4)CC3)c(F)cc2c1=O` [Example 68, 8-chloro-7-[4-(3-chlorophenyl)piperazin-1-yl]-6-fluoro-4-oxo-1-[3-(piperidin-1-ylmethyl)phenyl]-1,4-dihydroquinoline-3-carboxylic acid] showed an IC50 of 2000 to 20000 nM.
Compound `COc1c(N2CCN(c3ccc(C(C)=O)cc3)CC2)c(F)cc2c(=O)c(C(=O)O)cn(-c3ccc(CN(C)C)cc3)c12` [Example 103, 7-[4-(4-acetylphenyl)piperazin-1-yl]-1-{4-[(dimethylamino)methyl]phenyl}-6-fluoro-8-methoxy-4-oxo-1,4-dihydroquinoline-3-carboxylic acid] has an IC50 of 500 to 2000 nM.
Work on `CCN(CC)Cc1ccc(-n2cc(C(=O)O)c(=O)c3cc(F)c(N4CCN(c5ccccc5OC)CC4)c(OC)c32)cc1` [Example 110, 1-{4-[(diethylamino)methyl]phenyl}-6-fluoro-8-methoxy-7-[4-(2-methoxyphenyl)piperazin-1-yl]-4-oxo-1,4-dihydroquinoline-3-carboxylic acid] yielded an IC50 of less than 500 nM.
Work on `O=C(O)c1cn(-c2ccc(CN3CCCC3)cc2)c2c(Cl)c(N3CCN(c4ccc(Cl)cc4)CC3)c(F)cc2c1=O` [Example 3, 8-chloro-6-fluoro-7-[4-(4-chlorophenyl)-piperazin-1-yl]-4-oxo-1-[4-(pyrrolidin-1-ylmethyl)phenyl]-1,4-dihydroquinoline-3-carboxylic acid] yielded an IC50 of 500 to 2000 nM.
